Earlier results in patent publication US20040126415A1, “Dermal delivery of a water-soluble selective cyclooxygenase-2 inhibitor” (priority 2002, published 2004).

What was measured:
[1] = molecular target: COX-1 (Homo sapiens, UniProt P23219)
[2] = molecular target: T1, COX-2 (Homo sapiens, UniProt P35354)
T1 sequence (P35354 18-604): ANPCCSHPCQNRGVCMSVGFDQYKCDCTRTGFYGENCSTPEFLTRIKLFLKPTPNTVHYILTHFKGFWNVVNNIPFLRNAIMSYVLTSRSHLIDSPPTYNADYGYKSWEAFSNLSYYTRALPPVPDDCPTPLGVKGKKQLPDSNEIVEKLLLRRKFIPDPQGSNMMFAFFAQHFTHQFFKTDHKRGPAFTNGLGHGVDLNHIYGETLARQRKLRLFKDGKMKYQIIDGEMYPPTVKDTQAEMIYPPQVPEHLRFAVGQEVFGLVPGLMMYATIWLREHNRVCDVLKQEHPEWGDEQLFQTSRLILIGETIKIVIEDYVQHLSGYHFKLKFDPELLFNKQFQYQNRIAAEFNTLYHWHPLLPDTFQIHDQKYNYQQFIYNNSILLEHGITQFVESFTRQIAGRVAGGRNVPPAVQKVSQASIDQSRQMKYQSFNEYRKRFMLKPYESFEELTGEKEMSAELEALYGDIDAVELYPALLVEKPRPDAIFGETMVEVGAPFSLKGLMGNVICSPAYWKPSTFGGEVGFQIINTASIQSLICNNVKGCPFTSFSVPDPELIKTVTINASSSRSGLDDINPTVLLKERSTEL

Sequence of COX-1 (P23219 24-599): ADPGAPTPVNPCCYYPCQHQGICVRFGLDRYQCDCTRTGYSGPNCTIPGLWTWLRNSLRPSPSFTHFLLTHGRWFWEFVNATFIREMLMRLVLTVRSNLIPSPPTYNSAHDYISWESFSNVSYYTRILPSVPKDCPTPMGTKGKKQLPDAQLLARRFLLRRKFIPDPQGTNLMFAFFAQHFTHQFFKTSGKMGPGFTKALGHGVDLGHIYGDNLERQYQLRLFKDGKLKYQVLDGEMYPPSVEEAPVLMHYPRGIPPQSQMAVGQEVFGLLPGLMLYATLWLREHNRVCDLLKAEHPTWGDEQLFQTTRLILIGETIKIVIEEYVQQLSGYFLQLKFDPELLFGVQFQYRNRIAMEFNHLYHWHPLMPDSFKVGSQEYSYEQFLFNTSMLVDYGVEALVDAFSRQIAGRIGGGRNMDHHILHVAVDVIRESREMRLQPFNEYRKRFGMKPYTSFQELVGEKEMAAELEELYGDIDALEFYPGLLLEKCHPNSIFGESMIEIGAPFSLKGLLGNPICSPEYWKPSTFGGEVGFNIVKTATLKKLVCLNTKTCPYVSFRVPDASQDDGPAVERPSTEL

| Compound | in vitro inhibitory activity against COX-1 [1] | in vitro inhibitory activity against COX-2 [2] |
| --- | --- | --- |
| Cc1onc(-c2ccccc2)c1-c1ccc(S(N)(=O)=O)cc1 [valdecoxib, 4-[5-methyl-3-phenylisoxazol-4-yl]benzenesulfonamide] | weak inhibitor |  |
| CCC(=O)NS(=O)(=O)c1ccc(-c2c(-c3ccccc3)noc2C)cc1 [Parecoxib, N-[[4-(5-methyl-3-phenylisoxazol-4-yl)phenyl]sulfonyl]propanamide] | weak in vitro inhibitory activity | weak in vitro inhibitory activity |
